Patent US20250345350A1, “TREATING PAIN ASSOCIATED WITH CENTRAL SENSITIZATION” (Medicon Pharmaceuticals, Inc., priority 2022, published 2025)
Read-outs that look alike come from different tables or passages of the source.

Columns and labels:
[1] = system: STZ-induced central sensitization in Sprague-Dawley rats; assay: PWT (von Frey), streptozotocin rat model of central sensitization (Example 4); format: in vivo; settings: week 7; PS 8% hydrogel to both hind paws 3 times a day for 3 weeks from week 4 after STZ
Protocol: Sprague-Dawley rats were fasted for 4-6 hours before being injected intraperitoneally with 45 mg/kg STZ. This was performed for all experimental groups, except the naive group. In order to prevent hypoglycaemic death, rats received 10% sucrose water as the sole water source for the first 48 hours after injection. In order to ensure only those rats considered diabetic (i.e., having non-fasting plasma glucose levels of >250 mg/dL) were included in the study, blood glucose was measured at 72 hours after the STZ injection.
Four weeks after STZ injection, the rats were randomised into treatment groups. This delay between STZ injection and treatment allows the establishment of chronic pain (allodynia) associated with central sensitization. […] 5% lidocaine cream (positive control) was applied only once to both hind paws of the rats 30 minutes before measurement of PWT.
The rats were split into 8 study groups, with those in the experimental groups (1-4) having an average body weight of about 225 g, and those in the control groups (5-8) having an average body weight of about 335 g, as follows: • 1. Group 1: naive rats (n=5) • 2. Group 2: STZ only (n=6) • 3. Group 3: STZ plus vehicle (n=6) • 4. […] Group 5: STZ plus oral vehicle (n=8) • 6. Group 6: STZ plus 0.7% sulindac hydrogel (n=7) • 7. Group 7: STZ plus 5% lidocaine cream (n=8) • 8.

[2] = system: PHN induced by HSV-1 KOS strain virus in BALB/c mice; assay: PWT (von Frey), HSV-1 mouse model of PHN, topical (Example 20); format: in vivo
Protocol: PHN was induced in mice by infecting them with the HSV-1 KOS strain virus and following established protocols (Ou et al, Front Immunol, 14, 1026269, 2023; Takasaki et al, Anesthesiology, 96(5), 1168-74, 2002).
; Reckitt Benckiser). Three days later, HSV-1 (10^6 PFUs in 20 μl PBS) was inoculated on the shin of the right hind paw (5×5 mm) after scarification with sandpaper. The virus was applied directly to the scarified area. The contralateral hind paw was without inoculation. Mock infection was performed using the same virus inactivated by heating at 60° C. for 1 h.
. Group 1: sham inoculated (n=5-7) • 2.
In a second experiment, the effect of the parent compound, sulindac, was tested in the same mouse model. Five days post-inoculation, sulindac (as a 5% gel), or vehicle control were administered topically onto both hind paws of mice three times a day for three days.
. Group 1: vehicle control (n=5-7) • 2. Group 2: sulindac 5% (n=5-7)

[3] = Pharmacokinetics and biodistribution after topical PS 8% ointment to hind paws (Example 25); format: in vivo, mouse; settings: normal mice, topical PS 8% ointment to hind paws; for AUC(0-t) / Cmax / half-life: mouse, in vivo, topical or ocular, 50 μl per paw of PS 8% ointment; for AUC(0-t): read-out: AUC0-24 h; for Cmax: read-out: Cmax, mean ± SEM
Protocol: At 0.5, 1, 3, 5, 12, 18, and 24 h, mice (n=4-5 mice/time point) were euthanized with CO2 inhalation. Blood was drawn immediately after death. Tissues, including paw skin, paw muscle, leg muscle, the sciatic nerve and lumbar DRG bilaterally were dissected quickly, immediately frozen in liquid nitrogen and stored at −80° C. until analyzed.

[4] = PS and metabolites in proximal and distal half of the sciatic nerve (Example 25); format: in vivo, mouse; settings: mice with paclitaxel-induced PN, PS 8% ointment 3x/d for 2 wks, 30 min after last dose; for concentration at 30 min: mouse, in vivo, 8 % PS ointment, 3×/d
Protocol: In a separate experiment we studied 8 mice with paclitaxel-induced PN treated with PS 8% ointment 3×/d for 2 wks. Mice were euthanized as above 30 minutes after the last dose of PS. From these mice we harvested both sciatic nerves dividing each into proximal and distal halves, and combined the corresponding halves of every two animals for assay of drug levels.

[5] = Pharmacokinetics and biodistribution after 3% PS gel on outer surface of eyelid (Example 26); format: in vivo, rabbit; settings: male, New Zealand White, rabbit, rabbits, 3% PS gel on outer surface of upper eyelids; for Cmax / half-life / AUC(0-t): topical or ocular; for AUC(0-t): read-out: AUC0-24 h; for concentration at 0.5 h / concentration at 1 h / concentration at 2 h / concentration at 4 h / concentration at 8 h / concentration at 24 h: topical, read-out: Amount in tissue, Mean ± SEM
Protocol: The pharmacokinetics and biodistribution of 3% PS gel applied to the outer surface of both upper eyelids was studies in male New Zealand White rabbits.
Eyelid and tissues of the globe were dissected and frozen quickly in liquid nitrogen until the levels of PS and its metabolites were determined by HPLC as described Xie et al. (Br J Pharmacol (2012);165:2152-66).

[6] = Preliminary in vivo evidence, topical PS hydrogel, PTPN (Example 6)
[7] = system: paclitaxel-induced central sensitization in C57/BL/6J mice; settings: day 14
Protocol: Regarding the treatment with lidocaine: 5% lidocaine cream (a positive control) was applied once to both hind paws of the mice 30 minutes before measurement of PWT.
Briefly, for mechanical allodynia, pain threshold responses were measured using the well-established method of von Frey filaments in line with that performed in the earlier Examples. The PWT test was performed on day-8 (before the first dose of paclitaxel), the day of starting treatment (day 0, at which central sensitization was fully established) and day 14 (treatment continued until day 15). The mechanical threshold, expressed as g, indicates the force of the von Frey filament to which the animal reacted.

[8] = system: NTG-induced chronic migraine in mice; assay: PWT (von Frey), NTG-induced chronic migraine model, oral (Example 16)
Protocol: In particular, mice receive sublingual NTG 0.4 mg in the form of a finely crushed 0.4 mg NTG tablet (Greenstone Brand) every two days, receiving a total of five doses. For control mice, an NTG placebo (Practi-Nitroglycerin Sublingual 0.4 mg Simulated Medication tablet) was administered in the same way.
Group 1: placebo NTG (i.e, no NTG treatment, n=8) • 2. Group 2: NTG (n=8) • 3. Group 3: NTG+vehicle (n=8) • 4. […] Group 5: NTG+sulindac (n=8)
Mechanical allodynia was determined using von Frey filaments in line with that performed in the earlier Examples. The PWT test was performed prior to NTG (or placebo NTG) administration to determine baseline values, as indicated. […] The mechanical threshold, expressed as g, indicates the force of the von Frey filament to which the animal reacted.

[9] = system: NTG-induced migraine in C57BL/6J mice; assay: PWT (von Frey), NTG-induced migraine mouse model, topical (Example 13)
Protocol: Specifically, instead of the intraperitoneal injection of NTG, a finely crushed 0.4 mg NTG tablet (Greenstone Brand) was administered sublingually. As a control, a Practi-Nitroglycerin Sublingual 0.4 mg Simulated Medication tablet was used.
For determining mechanical allodynia, pain threshold responses were measured using the well-established method of von Frey filaments in line with that performed in the earlier Examples.
The PWT test, assessing mechanical allodynia, was performed 30 minutes after treatment. The mechanical threshold, expressed as g, indicates the force of the von Frey filament to which the animal reacted.

In the case of `CCOP(=O)(OCC)OCCCCOC(=O)CC1=C(C)/C(=C/c2ccc([S+](C)[O-])cc2)c2ccc(F)cc21` (stereo not drawn) [PS, phosphosulindac], the “PWT, gm Mean ± SEM” value [1] is reported as 22.5 ± 2.20 gm, the “PWT, g Mean ± SEM” value ([2]; Post-inoculation, day 5 (before treatment)) is reported as 0.53 ± 0.06 g and the “PWT, g Mean ± SEM” value ([2]; Post-treatment, PS 5% gel on both hind paws three times a day for three days) is reported as 0.93 ± 0.06 g. For the same compound, the “PWT, g Mean ± SEM” value ([2]; Pre-inoculation) was 1.27 ± 0.19 g, the AUC(0-t) ([3]; DRG (dorsal root ganglia)) was 4.5 µM·h and the Cmax ([3]; DRG (dorsal root ganglia)) was 300 ± 100 nM. The half-life ([3]; SN (sciatic nerve)) was 57.4 h, the AUC(0-t) ([3]; SN (sciatic nerve)) was 12 µM·h and the Cmax ([3]; SN (sciatic nerve)) was 900 ± 100 nM. It also gave a half-life ([3]; leg muscle) of 20.6 h, an AUC(0-t) ([3]; leg muscle) of 172 µM·h and a Cmax ([3]; leg muscle) of 35000 ± 3600 nM. For the same compound, the half-life ([3]; paw muscle) was 11.4 h, the AUC(0-t) ([3]; paw muscle) was 411 µM·h and the Cmax ([3]; paw muscle) was 102000 ± 4600 nM. For the same compound, the half-life ([3]; paw skin) was 16.1 h, the AUC(0-t) ([3]; paw skin) was 1610 µM·h and the Cmax ([3]; paw skin) was 195000 ± 5300 nM. For the same compound, the “detection in the systemic circulation” value [3] was “no PS was detected”, the “Distal half of sciatic nerve, mean ± SEM” value [4] was 17.0 ± 5.1 µM and the “Proximal half of sciatic nerve, μM, mean ± SEM” value [4] was 0.9 ± 0.3 µM. The concentration at 30 min ([4]; read-out: Distal half of sciatic nerve, mean ± SEM) was 17 ± 5.1 µM, the concentration at 30 min ([4]; read-out: Proximal half of sciatic nerve, μM, mean ± SEM) was 0.9 ± 0.3 µM and the Cmax ([5]; conjunctiva) was 5800 nM. For the same compound, the half-life ([5]; conjunctiva) was 5.7 h, the AUC(0-t) ([5]; conjunctiva) was 58.6 ± 0.9 µM·h and the Cmax ([5]; cornea) was 1800 nM. The half-life ([5]; cornea) was 23 h, the AUC(0-t) ([5]; cornea) was 6.4 ± 0.4 µM·h and the Cmax ([5]; eyelid) was 14200 nM. The half-life ([5]; eyelid) was 14.4 h, the AUC(0-t) ([5]; eyelid) was 45.2 ± 0.5 µM·h and the concentration at 0.5 h ([5]; AH (aqueous humor)) was 0 nM. For the same compound, the concentration at 1 h ([5]; AH (aqueous humor)) was 0 nM, the concentration at 2 h ([5]; AH (aqueous humor)) was 0 nM and the concentration at 4 h ([5]; AH (aqueous humor)) was 0 nM. For the same compound, the concentration at 8 h ([5]; AH (aqueous humor)) was 0 nM, the concentration at 24 h ([5]; AH (aqueous humor)) was 0 nM and the concentration at 0.5 h ([5]; conjunctiva) was 1300 ± 100 nM. It also gave a concentration at 1 h ([5]; conjunctiva) of 1800 ± 300 nM, a concentration at 2 h ([5]; conjunctiva) of 400 ± 100 nM and a concentration at 4 h ([5]; conjunctiva) of 6100 ± 3300 nM. The concentration at 8 h ([5]; conjunctiva) was 3400 ± 1400 nM, the concentration at 24 h ([5]; conjunctiva) was 500 ± 400 nM and the concentration at 0.5 h ([5]; cornea) was 1800 ± 900 nM. The concentration at 1 h ([5]; cornea) was 1300 ± 200 nM, the concentration at 2 h ([5]; cornea) was 1400 ± 100 nM and the concentration at 4 h ([5]; cornea) was 500 ± 100 nM. It also gave a concentration at 8 h ([5]; cornea) of 1100 ± 600 nM, a concentration at 24 h ([5]; cornea) of 0 nM and a concentration at 0.5 h ([5]; eyelid) of 8300 ± 2200 nM. For the same compound, the concentration at 1 h ([5]; eyelid) was 14200 ± 5300 nM, the concentration at 2 h ([5]; eyelid) was 2000 ± 500 nM and the concentration at 4 h ([5]; eyelid) was 3500 ± 1900 nM. The concentration at 8 h ([5]; eyelid) was 200 ± 200 nM, the concentration at 24 h ([5]; eyelid) was 1800 ± 1300 nM and the concentration at 0.5 h ([5]; vitreous) was 0 nM. The concentration at 1 h ([5]; vitreous) was 0 nM, the concentration at 2 h ([5]; vitreous) was 0 nM and the concentration at 4 h ([5]; vitreous) was 0 nM. The concentration at 8 h ([5]; vitreous) was 0 nM, the concentration at 24 h ([5]; vitreous) was 0 nM and the “analgesic effect on neuropathic pain associated with PTPN” value [6] was “striking analgesic effect”. For the same compound, the “PWT, g Mean ± SEM” value ([7]; PS 1.2% (equimolar to sulindac 0.7%) 3 times a day) was 0.98 ± 0.06 g, the “PWT, g Mean ± SEM” value ([7]; PS hydrogel 5% or 0.7% sulindac 3 times a day, 5% lidocaine cream once 30 min before, pregabalin 10 mg/kg orally once 1 h before) was 1.24 ± 0.07 g and the “PWT, g Mean ± SEM” value ([8]; Baseline, prior to NTG administration) was 2.28 ± 0.34 g. For the same compound, the “PWT, g Mean ± SEM” value ([8]; Day 11, orally once a day for 11 days concurrent with NTG, PS 50 mg/kg, sulindac 33 mg/kg) was 1.18 ± 0.10 g, the “PWT Post-treatment Mean ± SEM” value ([9]; 30 min after treatment, PS 8% gel or sulindac 5.3% (in DMSO) on both hind paws 30 min after NTG) was 1.00 ± 0.12 g and the “PWT Baseline Mean ± SEM” value ([9]; baseline of the group, before NTG and treatment) was 1.72 ± 0.10 g.
